Assay results as given in patent publication US20250195679A1, “ANTIBODY-DRUG CONJUGATE AND USE THEREOF” (SHANGHAI HUAOTA BIOPHARMACEUTICAL CO., LTD., priority 2022, published 2025).

Experiments:
[1] = system: MDA-MB-231 human breast cancer cells; assay: MDA-MB-231 triple-negative breast cancer CDX mouse efficacy model (Example 8); assay type: in vivo, NPG mice; settings: 5 mg/kg i.p. BIW, 8 doses, FIG. 8
Method: NPG mice were used to establish an MDA-MB-231 triple-negative breast cancer animal model for assaying the efficacy of the test antibodies. The MDA-MB-231 human breast cancer cells used in this example were incubated in an L-15 medium supplemented with 10% FBS in an incubator at 37° C. without CO2. Before continuous cell culturing for ten generations, about 5.0×10^6 MDA-MB-231 cells were suspended in 100 μL of PBS and then mixed uniformly with an equal volume of Matrigel. The mixture was then inoculated by subcutaneous injection into NPG humanized mice on the right side of the back near the axilla, with an inoculation volume of about 200 μL. The mice were anesthetized with 2%-5% isoflurane prior to the inoculation. On the day of inoculation, 1.0×10^7 PBMCs (100 μL) were injected via the tail vein. When the tumors grew to an average size of about 50-80 mm^3, the […] tumor-bearing mice were randomly divided into 7 groups of 6 based on tumor volume and body weight. […] Oleclumab is an anti-CD73 monoclonal antibody developed by AstraZeneca, currently in Phase 2 clinical trials. The amino acid sequence of the heavy chain of 900201 is as set forth in SEQ ID NO. 43, and the amino acid sequence of the light chain of 900201 is as set forth in SEQ ID NO. 44.

[2] = system: BxPC-3 human pancreatic cancer cells; assay: BxPC3 CDX pancreatic cancer mouse efficacy model; assay type: in vivo, NPG mice; settings: 5 mg/kg i.p. BIW, 6 doses, FIG. 7
Method: NPG mice were used to establish a BxPC-3 pancreatic cancer animal model for assaying the efficacy of the test antibodies. The BxPC-3 human pancreatic cancer cells used in this example were incubated in an RPMI-1640 medium supplemented with 10% FBS in an incubator at 37° C. with 5% CO2. Before continuous cell culturing for ten generations, 100 μL of PBS containing about 1×10^7 BxPC-3 cells was mixed uniformly with an equal volume of Matrigel. The mixture was then inoculated by subcutaneous injection into 18 NPG mice on the right side of the back near the axilla, with an inoculation volume of about 200 μL. The mice were anesthetized with 2%-5% isoflurane prior to the inoculation. On the day of inoculation, 1.0×10^7 PBMCs (100 μL) were injected via the tail vein. When the tumors grew to an average size of about 50-80 mm^3, the 18 tumor-bearing mice were randomly divided into 3 groups of 6 based on tumor volume and body weight.
Oleclumab is an anti-CD73 monoclonal antibody developed by AstraZeneca, currently in Phase 2 clinical trials. Uliledlimab is an anti-CD73 monoclonal antibody developed by I-Mab Biopharma, currently in Phase 1 clinical trials. The amino acid sequence of the heavy chain of 900543 is as set forth in SEQ ID NO. 45, and the amino acid sequence of the light chain of 900543 is as set forth in SEQ ID NO. 46. […]

900201: negative control antibody, which does not bind to the CD73 antigen; heavy chain SEQ ID NO. 43, light chain SEQ ID NO. 44 [compound 900201, reference compound]
inhibition of growth of MDA-MB-231 breast cancer [1]: could not inhibit the tumor growth

900543: negative control antibody, which does not bind to the CD73 antigen; heavy chain SEQ ID NO. 45, light chain SEQ ID NO. 46 [compound 900543, reference compound]
inhibition of growth of BxPC-3 pancreatic cancer [2]: could not inhibit tumor growth
